In ChEMBL document CHEMBL1127157, “Synthesis and biological activity of 2-desamino and 4-deoxy analogs of 5,10-dideazatetrahydrofolic acid (DDATHF)” (Bioorg Med Chem Lett, 1993):
In brackets after ≈: the same amount, converted by molar mass.

Columns and labels:
[1] = molecular target: T1, Trifunctional purine biosynthetic protein adenosine-3 (Mus musculus, UniProt Q64737); assay: Tested for the inhibition of trifunctional Glycinamide ribonucleotide formyltransferase isolated from murine L1210 cells.; type: functional
T1 sequence (Q64737 whole entry): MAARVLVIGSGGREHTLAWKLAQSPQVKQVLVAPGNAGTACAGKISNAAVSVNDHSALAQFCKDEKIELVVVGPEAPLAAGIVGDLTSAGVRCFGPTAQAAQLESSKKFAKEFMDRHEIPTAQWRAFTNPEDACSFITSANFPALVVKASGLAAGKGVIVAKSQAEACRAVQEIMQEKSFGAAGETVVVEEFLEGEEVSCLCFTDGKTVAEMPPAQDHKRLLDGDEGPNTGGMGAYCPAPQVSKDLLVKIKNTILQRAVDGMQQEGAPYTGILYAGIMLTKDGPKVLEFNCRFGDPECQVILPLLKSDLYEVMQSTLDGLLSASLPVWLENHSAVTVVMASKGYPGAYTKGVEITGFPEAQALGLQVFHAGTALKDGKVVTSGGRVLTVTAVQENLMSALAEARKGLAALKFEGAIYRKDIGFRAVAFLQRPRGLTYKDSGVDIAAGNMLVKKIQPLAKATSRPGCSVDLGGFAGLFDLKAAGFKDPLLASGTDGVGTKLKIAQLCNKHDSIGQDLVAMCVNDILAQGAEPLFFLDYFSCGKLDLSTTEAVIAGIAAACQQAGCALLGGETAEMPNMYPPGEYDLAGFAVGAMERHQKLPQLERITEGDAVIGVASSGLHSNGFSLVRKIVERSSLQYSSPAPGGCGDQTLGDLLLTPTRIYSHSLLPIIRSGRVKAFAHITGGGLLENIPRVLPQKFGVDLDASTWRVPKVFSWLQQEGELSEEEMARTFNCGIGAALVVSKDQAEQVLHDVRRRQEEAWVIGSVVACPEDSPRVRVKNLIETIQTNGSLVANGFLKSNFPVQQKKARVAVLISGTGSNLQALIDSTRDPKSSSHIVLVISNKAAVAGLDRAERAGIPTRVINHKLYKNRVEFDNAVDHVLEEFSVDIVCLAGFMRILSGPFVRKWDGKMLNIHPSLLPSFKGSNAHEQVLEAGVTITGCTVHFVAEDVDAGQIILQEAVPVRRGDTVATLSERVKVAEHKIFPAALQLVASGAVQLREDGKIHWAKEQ

[2] = system: CCRF-CEM; assay: Tested for the growth inhibition of CCRF-CEM, a human T-cell derived lymphoblastic leukemic cell line; type: functional, cell-based
[3] = molecular target: T2, Trifunctional purine biosynthetic protein adenosine-3 (Homo sapiens, UniProt P22102); assay: Tested for the inhibition of recombinant human monofunctional Glycinamide ribonucleotide formyltransferase
T2 sequence (P22102 whole entry): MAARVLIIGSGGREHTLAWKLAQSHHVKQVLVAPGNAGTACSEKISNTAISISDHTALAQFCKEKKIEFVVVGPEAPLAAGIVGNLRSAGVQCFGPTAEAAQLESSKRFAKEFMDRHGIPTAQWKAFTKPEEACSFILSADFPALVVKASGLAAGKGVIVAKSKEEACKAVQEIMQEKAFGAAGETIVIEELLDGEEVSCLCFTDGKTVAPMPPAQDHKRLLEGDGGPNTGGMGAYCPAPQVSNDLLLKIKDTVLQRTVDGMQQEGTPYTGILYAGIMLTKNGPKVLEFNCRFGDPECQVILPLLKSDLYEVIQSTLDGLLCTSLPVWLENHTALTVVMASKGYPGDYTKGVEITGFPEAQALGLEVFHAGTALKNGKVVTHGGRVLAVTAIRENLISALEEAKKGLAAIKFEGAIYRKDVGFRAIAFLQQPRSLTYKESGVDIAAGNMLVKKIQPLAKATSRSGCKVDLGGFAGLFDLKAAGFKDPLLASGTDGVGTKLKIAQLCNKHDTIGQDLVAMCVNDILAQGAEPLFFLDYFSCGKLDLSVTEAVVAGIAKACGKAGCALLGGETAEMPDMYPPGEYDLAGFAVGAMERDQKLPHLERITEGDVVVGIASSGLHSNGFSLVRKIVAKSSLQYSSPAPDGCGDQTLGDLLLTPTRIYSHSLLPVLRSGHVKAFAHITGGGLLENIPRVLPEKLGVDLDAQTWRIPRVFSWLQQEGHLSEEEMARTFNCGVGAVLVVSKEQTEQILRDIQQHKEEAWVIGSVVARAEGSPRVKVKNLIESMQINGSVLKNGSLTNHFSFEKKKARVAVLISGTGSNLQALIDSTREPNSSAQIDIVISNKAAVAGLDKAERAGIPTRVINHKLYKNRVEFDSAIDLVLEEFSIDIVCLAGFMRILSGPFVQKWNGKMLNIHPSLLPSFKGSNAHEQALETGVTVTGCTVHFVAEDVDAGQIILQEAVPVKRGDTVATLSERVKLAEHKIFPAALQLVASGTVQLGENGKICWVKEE

Compound	Ki [1] [µM]	IC50 [2] [ng/mL]	Ki [3] [µM]
Nc1nc2c(c(=O)[nH]1)C[C@@H](CCc1ccc(C(=O)N[C@@H](CCC(=O)O)C(=O)O)cc1)CN2 [LOMETREXOL]	0.12	–	–
O=C(O)CC[C@H](NC(=O)c1ccc(CCC2CNc3ncnc(O)c3C2)cc1)C(=O)O (stereo partly specified)	27	> 20000	82.1
Nc1ncc2c(n1)NCC(CCc1ccc(C(=O)N[C@@H](CCC(=O)O)C(=O)O)cc1)C2 (stereo partly specified)	–	4 (≈ 9.36 nM)	186
